# ± gives the standard deviation of the reports.
row,glass transition temperature [°C],Compound
1,289.00,*C(=O)c1ccc2c(c1)C(=O)N(c1ccc(C(=O)c3ccccc3N3C(=O)c4ccc(*)cc4C3=O)cc1)C2=O (repeat unit)
2,240.00,*Oc1ccc(NC(=O)/C=C/C(=O)NNC(=O)/C=C/C(=O)Nc2ccc(OC(=O)c3ccccc3C(=O)NNC(=O)c3ccccc3C(*)=O)cc2)cc1 (repeat unit)
3,187.50,*c1ccc2c(c1)C(=O)N(c1ccc(OCCOCCOc3ccc(N4C(=O)c5ccc(C(*)(C(F)(F)F)C(F)(F)F)cc5C4=O)cc3)cc1)C2=O (repeat unit)
4,270.00,*c1ccc(Oc2ccc(-c3cnc4ccc(Oc5ccc6nc(*)cnc6c5)cc4n3)cc2)cc1 (repeat unit)
5,172.00,*Oc1ccc(C2(c3ccc(Oc4ccc(C(=O)Oc5ccc(C6(c7ccc(OC(=O)c8ccc(*)cc8)cc7)CCC(c7ccccc7)CC6)cc5)cc4)cc3)CCC(C(C)(C)C)CC2)cc1 (repeat unit)
6,244.00,*c1ccc(Oc2ccc(Oc3ccc(N4C(=O)c5ccc(Oc6c(C)cc(C(C)(C)c7cc(C)c(Oc8ccc9c(c8)C(=O)N(*)C9=O)c(C)c7)cc6C)cc5C4=O)cc3)c(C(C)(C)C)c2)cc1 (repeat unit)
7,96.00,*O[Si](C)(C)O[Si](C)(C)O[Si](C)(C)C#Cc1ccc(C#C[Si](*)(C)C)cc1 (repeat unit)
8,158.00,*CCCCCCN1C(=O)C(=O)N(c2ccc(Cc3ccc(N4C(=O)C(=O)N(*)C4=O)cc3)cc2)C1=O (repeat unit)
9,240.00,*Oc1ccc(S(=O)(=O)c2ccc(Oc3cc(C)c(C(c4cc(C(C)C)c(*)cc4C)c4ccccc4C(=O)O)cc3C(C)C)cc2)cc1 (repeat unit)
10,-1.00,*c1ccc(-c2ccc(-c3ccc(-c4ccc([Si](CCCC)(CCCC)[Si](*)(CCCC)CCCC)s4)s3)s2)s1 (repeat unit)
11,241.00,*c1ccc(-c2cc(-c3ccc(-c4ccccc4)cc3)cc(-c3ccc(N4C(=O)c5ccc(NC(=O)Nc6ccc(Oc7ccc(NC(=O)Nc8ccc9c(c8)C(=O)N(*)C9=O)cc7)cc6)cc5C4=O)cc3)n2)cc1 (repeat unit)
12,301.00,*c1ccc(Oc2ccc(S(=O)(=O)c3ccc(Oc4ccc(-c5nc(-c6ccc(-c7nc(*)c(-c8ccccc8)[nH]7)cc6)[nH]c5-c5ccccc5)cc4)cc3)cc2)cc1 (repeat unit)
13,205.00,*c1ccc(Oc2ccc(C(C)(C)c3ccc(Oc4ccc(-c5nnc(*)n5-c5ccc(C)cc5)cc4)cc3)cc2)cc1 (repeat unit)
14,200.50,*Oc1ccc(Oc2ccc(NC(=O)c3ccc(Oc4ccc(Oc5ccc(C(=O)Nc6ccc(*)cc6)cc5)cc4-c4ccccc4)cc3)cc2)cc1-c1ccccc1 (repeat unit)
15,35.00,*Oc1ccc(CC(NC(=O)CCc2ccc(OC(=O)CC(C)CCC(*)=O)cc2)C(=O)OCCCC)cc1 (repeat unit)
16,72.00,*CC(*)(C)C(=O)OCCCCCCCCCCOc1ccc(C(=O)Oc2ccc(C(=O)/C=C/c3c(C)c4ccccc4n3C)cc2)cc1 (repeat unit)
17,84.00,*CCCCCCCCCCCCNC(=O)C(OC)C(OC)C(=O)N* (repeat unit)

row,glass transition temperature [°C],Compound
1,290.00,*C(=O)Nc1ccc(Oc2cc(C(C)(C)C)c(Oc3ccc(NC(=O)c4ccc5c(c4)C(=O)N(c4ccc(Oc6ccc(C7(c8ccc(Oc9ccc(N%10C(=O)c%11ccc(*)cc%11C%10=O)cc9)cc8)CC8CC7C7CCCC87)cc6)cc4)C5=O)cc3)cc2C(C)(C)C)cc1 (repeat unit)
2,273.00,*Oc1ccc(NC(=O)c2cc(NC(=O)c3ccc(OC(C)=O)cc3)cc(C(=O)Nc3ccc(*)cc3)c2)cc1 (repeat unit)
3,165.00,*C(F)(F)C1(*)OC(F)(C(F)(F)F)C(F)(C(F)(F)F)O1 (repeat unit)
4,217.00,*Nc1ccccc1CCc1ccc(NC(=O)Nc2ccc(CCc3ccc(NC(*)=O)cc3)cc2)cc1 (repeat unit)
5,192.00,*c1ccc(Oc2ccc(C(=O)c3cccc(C(=O)c4ccc(Oc5ccc(N6C(=O)c7ccc(Oc8ccc(Oc9ccc(Oc%10ccc%11c(c%10)C(=O)N(*)C%11=O)cc9)cc8)cc7C6=O)cc5)cc4)c3)cc2)cc1 (repeat unit)
6,109.00,*Cc1cc(CNC(=O)CCCCC(=O)N*)cc(C(C)(C)C)c1 (repeat unit)
7,260.00,*Oc1ccc(C(=O)c2ccc(Oc3ccc(C4(c5ccc(*)cc5)c5ccccc5-c5ccccc54)cc3)cc2)c2ccccc12 (repeat unit)
8,178.00,*/C=C(\C#N)c1cccc(/C(C#N)=C/c2ccc(/C=C/c3ccc(N(c4ccccc4)c4ccc(N(c5ccccc5)c5ccc(/C=C/c6ccc(*)s6)cc5)cc4)cc3)s2)c1 (repeat unit)
9,100.00,*C1=C(c2ccc(-c3ccc4c(c3)C(CCCCCC)(CCCCCC)c3cc(-c5ccc(*)cc5)ccc3-4)cc2)C(=O)N(CCCCCCCCCCCC)C1=O (repeat unit)
10,-38.00,*CCCCCCOC(=O)CCCCCCCCC(=O)O* (repeat unit)
11,125.50,*CC(OCC(C)C)C(C)(C(=O)OC)C(*)(C)C(=O)OC (repeat unit)
12,286.00,*C(=O)Nc1cccc(NC(=O)c2ccc3c(c2)C(=O)N(c2ccc(Oc4ccc5ccc(Oc6ccc(N7C(=O)c8ccc(*)cc8C7=O)cc6)cc5c4)cc2)C3=O)c1 (repeat unit)
13,50.00,*Oc1ccc(OC(C)COCCCCCCCOc2ccc(-c3ccc(C(*)=O)cc3)cc2)c([N+](=O)[O-])c1 (repeat unit)
14,77.00,*CCCCCOC(=O)OCCCCCN1C(=O)c2ccc(C(=O)c3ccc4c(c3)C(=O)N(*)C4=O)cc2C1=O (repeat unit)
15,85.00,*CCCCCCOc1ccc(N(c2ccccc2)c2ccc(-c3ccc(N(c4ccccc4)c4ccc(O*)cc4)cc3)cc2)cc1 (repeat unit)
16,264.00,*c1ccc(Oc2ccc(C(c3ccc(Oc4ccc(N5C(=O)c6ccc(Oc7ccc8c(c7)C(=O)N(*)C8=O)cc6C5=O)cc4)cc3)(C(F)(F)F)C(F)(F)F)cc2)cc1 (repeat unit)
17,16.00,*O[Si](*)(C)CCCCOc1ccc(C(=O)Oc2ccc(C#N)cc2)cc1 (repeat unit)

row,Compound,glass transition temperature [°C]
1,*Oc1cccc(Oc2ccc(C(=O)c3ccc(P(=O)(c4ccccc4)c4ccc(C(=O)c5ccc(*)cc5)cc4)cc3)cc2)c1 (repeat unit),201.00
2,*C(F)(F)C(*)(F)Cl (repeat unit) [Poly(chlorotrifluoroethylene)],69.47 ± 25
3,*CCCCCC(=O)O* (repeat unit) [Poly(caprolactone)],55.0 ± 78
4,*CC(*)C(=O)Oc1ccccc1 (repeat unit),60.00
5,*CCOC(=O)c1ccc(C(=O)O*)cc1 (repeat unit) [Poly(ethylene terephthalate)],75 ± 3.5
6,*/C=C/C(C(=O)OCC)C(*)C(=O)OCC (repeat unit),6.00
7,*CC#CC#CCOc1ccc(C(=O)OCCN(CCOC(=O)c2ccc(O*)cc2)c2ccc(/N=N/c3ccc(/N=N/c4cc(C)c(C#N)c(C)c4)cc3)cc2)cc1 (repeat unit),120.00

# Reference: the PolyMetriX glass transition set
